Experiments:
Test in all cases: relative viability (nuclei count vs DMSO), 5 days (fraction); higher = more cells survive
SGI-1776 + Dasatinib = compound: CN1CCC(CNc2ccc3ncc(-c4cccc(OC(F)(F)F)c4)n3n2)CC1 [SGI-1776] + Cc1nc(Nc2ncc(C(=O)Nc3c(C)cccc3Cl)s2)cc(N2CCN(CCO)CC2)n1 [Dasatinib] (partner 0.075 µM)
Outline: (§1)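 Cells from lung cancer lines were seeded into 1536-well plates and, one day later, dosed by pin tool. Treatments were either a single drug or a fixed dose of an anchor drug with five library-drug doses (not always all listed) in √10 steps. After 5 days, nuclei were stained in a one-step fixation (final 0.05% Triton X-100, 1% formaldehyde, 1 ug/ml Hoechst) and counted on 4× images, and relative viability is the treated-to-vehicle nuclei ratio, as the median of duplicate plates.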

SGI-1776 + AZD7762 = compound: CN1CCC(CNc2ccc3ncc(-c4cccc(OC(F)(F)F)c4)n3n2)CC1 [SGI-1776] + NC(=O)Nc1cc(-c2cccc(F)c2)sc1C(=O)N[C@H]1CCCNC1 [AZD7762] (partner 0.2 µM)
Outline: as §1

SGI-1776 + Phenformin = compound: CN1CCC(CNc2ccc3ncc(-c4cccc(OC(F)(F)F)c4)n3n2)CC1 [SGI-1776] + N=C(N)NC(=N)NCCc1ccccc1 [Phenformin] (partner 250 µM)
Outline: as §1

Entinostat + Decitabine = compound: Nc1ccccc1NC(=O)c1ccc(CNC(=O)OCc2cccnc2)cc1 [Entinostat] + Nc1ncn([C@H]2C[C@H](O)[C@@H](CO)O2)c(=O)n1 [Decitabine] (partner 2 µM)
Outline: as §1

| Cell Line | relative viability (SGI-1776 + Dasatinib; first compound 0.08 µM) | relative viability (SGI-1776 + Dasatinib; first compound 0.8 µM) | relative viability (SGI-1776 + Dasatinib; first compound 2.53 µM) | relative viability (SGI-1776 + Dasatinib; first compound 8 µM) | relative viability (SGI-1776 + AZD7762; first compound 0.08 µM) | relative viability (SGI-1776 + AZD7762; first compound 0.8 µM) | relative viability (SGI-1776 + AZD7762; first compound 2.53 µM) | relative viability (SGI-1776 + AZD7762; first compound 8 µM) | relative viability (SGI-1776 + Phenformin; first compound 0.08 µM) | relative viability (SGI-1776 + Phenformin; first compound 0.8 µM) | relative viability (SGI-1776 + Phenformin; first compound 2.53 µM) | relative viability (SGI-1776 + Phenformin; first compound 8 µM) | relative viability (Entinostat + Decitabine; first compound 0.02 µM) | relative viability (Entinostat + Decitabine; first compound 0.06325 µM) | relative viability (Entinostat + Decitabine; first compound 0.2 µM) | relative viability (Entinostat + Decitabine; first compound 0.6325 µM) | relative viability (Entinostat + Decitabine; first compound 2 µM) |
| --- | --- | --- | --- | --- | --- | --- | --- | --- | --- | --- | --- | --- | --- | --- | --- | --- | --- |
| 201T | 0.603 | 0.555 | 0.47 | 0.471 | 0.581 | 0.604 | 0.644 | 0.657 | 0.442 | 0.461 | 0.415 | 0.471 | 0.82 | 0.692 | 0.777 | 0.401 | 0.406 |
| A549 |  |  |  |  |  |  |  |  | 0.122 | 0.148 | 0.11 | 0.155 | 0.27 | 0.251 | 0.205 | 0.177 | 0.0922 |
| A-427 | 0.736 | 0.693 | 0.665 | 0.499 | 0.685 | 0.681 | 0.686 | 0.627 | 0.258 | 0.277 | 0.275 | 0.209 | 0.536 | 0.507 | 0.528 | 0.477 | 0.438 |
| ABC-1 | 0.502 | 0.613 | 0.508 | 0.465 | 0.801 | 0.648 | 0.85 | 0.83 | 0.23 | 0.24 | 0.219 | 0.236 | 1.04 | 1.41 | 1.1 | 0.91 | 0.626 |
| BEN | 0.399 | 0.313 | 0.285 | 0.302 | 0.829 | 0.735 | 0.673 | 0.524 | 0.282 | 0.269 | 0.303 | 0.306 | 0.774 | 0.956 | 0.657 | 0.447 | 0.345 |
| CAL-12T | 0.633 | 0.351 | 0.348 | 0.246 | 0.739 | 0.667 | 0.567 | 0.654 | 0.558 | 0.647 | 0.531 | 0.558 |  |  |  |  |  |
| COR-L23 | 0.514 | 0.546 | 0.464 | 0.322 |  |  |  |  | 0.488 | 0.479 | 0.444 | 0.358 | 0.402 | 0.413 | 0.356 | 0.217 | 0.141 |
| COR-L 105 | 0.343 | 0.323 | 0.284 | 0.254 |  |  |  |  | 0.559 | 0.512 | 0.452 | 0.315 | 0.64 | 0.641 | 0.595 | 0.466 | 0.337 |
| ChaGo-K-1 | 0.652 | 0.647 | 0.561 | 0.416 | 0.892 | 0.875 | 0.912 | 0.859 | 0.491 | 0.526 | 0.458 | 0.408 | 0.572 | 0.545 | 0.543 | 0.443 | 0.45 |
| EKVX | 0.475 | 0.547 | 0.599 | 0.413 | 0.699 | 0.713 | 0.638 | 0.646 | 0.237 | 0.241 | 0.24 | 0.241 | 0.307 | 0.351 | 0.281 | 0.207 | 0.244 |
| EMC-BAC-2 | 0.361 | 0.284 | 0.314 | 0.288 | 1.12 | 1.16 | 1.09 | 0.928 | 0.517 | 0.475 | 0.469 | 0.419 | 0.988 | 0.916 | 0.815 | 0.486 | 0.364 |
| EPLC-272H | 0.381 | 0.365 | 0.264 | 0.314 | 0.188 | 0.224 | 0.364 | 0.252 | 0.261 | 0.326 | 0.352 | 0.246 | 0.409 | 0.383 | 0.325 | 0.25 | 0.218 |
| H3255 | 0.4 | 0.371 | 0.378 | 0.277 | 1.05 | 0.899 | 0.939 | 0.728 | 0.372 | 0.391 | 0.331 | 0.325 | 0.58 | 0.556 | 0.493 | 0.268 | 0.218 |
| HARA | 0.31 | 0.178 | 0.207 | 0.289 | 0.345 | 0.306 | 0.292 | 0.218 | 0.532 | 0.337 | 0.354 | 0.318 | 0.602 | 0.521 | 0.557 | 0.456 | 0.276 |
| HCC-15 | 0.577 | 0.551 | 0.466 | 0.382 | 1.05 | 1.12 | 1.34 | 1.21 | 0.45 | 0.417 | 0.372 | 0.343 | 0.622 | 0.508 | 0.46 | 0.261 | 0.151 |
| HCC-44 |  |  |  |  | 1.07 | 0.969 | 1 | 0.95 | 0.197 | 0.174 | 0.151 | 0.125 | 0.997 | 0.841 | 0.938 | 0.721 | 0.611 |
| HCC-78 | 0.416 | 0.455 | 0.369 | 0.366 | 0.665 | 0.726 | 0.579 | 0.538 | 0.779 | 0.775 | 0.695 | 0.592 | 0.823 | 0.726 | 0.595 | 0.594 | 0.371 |
| HCC-366 | 0.595 | 0.669 | 0.517 | 0.524 | 0.248 | 0.263 | 0.298 | 0.26 | 0.61 | 0.527 | 0.564 | 0.431 | 0.312 | 0.315 | 0.168 | 0.155 | 0.0591 |
| HCC-827 | 0.352 | 0.33 | 0.255 | 0.227 | 0.25 | 0.26 | 0.241 | 0.146 | 0.412 | 0.424 | 0.459 | 0.301 | 0.318 | 0.338 | 0.315 | 0.223 | 0.226 |
| HOP-62 | 0.724 | 0.679 | 0.531 | 0.597 | 0.84 | 0.574 | 0.613 | 0.646 | 0.728 | 0.616 | 0.704 | 0.623 | 0.272 | 0.248 | 0.248 | 0.213 | 0.132 |

Source: the supplement of paper PMC10307832
